According to patent US20230085307A1, “PYRIDAZINONE COMPOUND AND HERBICIDE” (NISSAN CHEMICAL CORPORATION, priority 2019, published 2023):

These compounds were tested on green foxtail (assay: Test Example 5: herbicidal effect by foliage application, plastic box (Table 20, symbol G)). Conditions: foliage application, 320 g/ha, 3 weeks after application.
Format: in vivo, green foxtail (Setaria viridis)
Method in brief: (§1)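 Plants sown in sterilized diluvial soil and grown 14 days in a greenhouse at 25° C to 30° C, then sprayed on the foliage with the compound's emulsion diluted in water to a predetermined herbicide amount. Injury to weeds and crops scored three weeks after application on a visual rating scale.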

SMILES	effect on green foxtail (G)
CCCC(=O)Oc1c(C)nn(C)c(=O)c1-c1c(-c2ccc(C)cc2)sc2ccc(F)cc12 [2-013]	5 (Herbicidal rate of 90% or more (almost completely withered))
COc1ccc(-c2sc3ccc(F)cc3c2-c2c(O)c(C)nn(C)c2=O)cc1 [2-026]	4 (Herbicidal rate of 70% or more and less than 90%)
CCCCOc1ccc(-c2sc3ccc(F)cc3c2-c2c(O)c(C)nn(C)c2=O)cc1 [2-036]	5 (Herbicidal rate of 90% or more (almost completely withered))

What follows are compounds tested on rice flat sedge (assay: Test Example 3: herbicidal effect by foliage application, Wagner pot (Table 18, symbol E)). Conditions: 320 g/ha.
Format: in vivo, rice flat sedge (Cyperus iria)
Method in brief: (§2)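 Plants were sown in alluvial soil held under 0.1–0.5 cm standing water and grown 14 days in a greenhouse at 25–30 °C. An emulsifiable formulation, water-diluted to the set dose, was then sprayed onto the foliage, and effects were scored three weeks later using previously defined criteria.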

SMILES	herbicidal effect on E (rice flat sedge), rating 0-5
CCCC(=O)Oc1c(C)nn(C)c(=O)c1-c1c(-c2ccc(C)cc2)sc2ccc(F)cc12 [2-013]	5 (Herbicidal rate of 90% or more (almost completely withered))
COc1ccc(-c2sc3ccc(F)cc3c2-c2c(O)c(C)nn(C)c2=O)cc1 [2-026]	5 (Herbicidal rate of 90% or more (almost completely withered))
CCCCOc1ccc(-c2sc3ccc(F)cc3c2-c2c(O)c(C)nn(C)c2=O)cc1 [2-036]	5 (Herbicidal rate of 90% or more (almost completely withered))

These compounds were tested on late watergrass (assay: Test Example 1: herbicidal activity, application before weed generation under submerged conditions (Table 16, symbol A)). Conditions: 320 g/ha applied herbicide.
Format: in vivo, late watergrass (Echinochloa oryzicola)
Method in brief: (§3)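 Alluvial soil was flooded to 4 cm depth, weed seeds were sown mixed and 2.5-leaf rice seedlings were transplanted. On sowing day, the compound's emulsion, diluted in water to a set dose, was applied to the water surface. Plants grew at 25–30 °C and were scored 0–5 after three weeks.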

SMILES	Herbicidal effect on A: late watergrass (grade 0-5)
CCCC(=O)Oc1c(C)nn(C)c(=O)c1-c1c(-c2ccc(C)cc2)sc2ccc(F)cc12 [2-013]	3 (Herbicidal rate of 40% or more and less than 70%)
COc1ccc(-c2sc3ccc(F)cc3c2-c2c(O)c(C)nn(C)c2=O)cc1 [2-026]	3 (Herbicidal rate of 40% or more and less than 70%)
CCCCOc1ccc(-c2sc3ccc(F)cc3c2-c2c(O)c(C)nn(C)c2=O)cc1 [2-036]	3 (Herbicidal rate of 40% or more and less than 70%)

Each compound was assayed on windgrass (assay: Test Example 4: herbicidal effect by soil treatment (Table 19, symbol L)). Conditions: 320 g/ha.
Format: in vivo, windgrass (Apera spica-venti)
Method in brief: (§4)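 Three weeks of greenhouse growth at 25° C. to 30° C. followed a uniform surface spray of water-diluted emulsion at a predetermined herbicide amount. Seeds had been sown beforehand under about 1.5 cm of sterilized diluvial soil. Grading followed criteria set out in an earlier test.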

SMILES	herbicidal effect rating, L: windgrass
CCCC(=O)Oc1c(C)nn(C)c(=O)c1-c1c(-c2ccc(C)cc2)sc2ccc(F)cc12 [2-013]	0 (Herbicidal rate of 5% or less (almost no effect))
COc1ccc(-c2sc3ccc(F)cc3c2-c2c(O)c(C)nn(C)c2=O)cc1 [2-026]	1 (Herbicidal rate of 5% or more and less than 20%)
CCCCOc1ccc(-c2sc3ccc(F)cc3c2-c2c(O)c(C)nn(C)c2=O)cc1 [2-036]	0 (Herbicidal rate of 5% or less (almost no effect))

The compounds below were run on southern crabgrass (assay: Test Example 5: herbicidal effect by foliage application, plastic box (Table 20, symbol F)). Conditions: foliage application, 320 g/ha, 3 weeks after application.
Format: in vivo, southern crabgrass (Digitaria ciliaris)
Method in brief: as §1

SMILES	effect on southern crabgrass (F)
CCCC(=O)Oc1c(C)nn(C)c(=O)c1-c1c(-c2ccc(C)cc2)sc2ccc(F)cc12 [2-013]	5 (Herbicidal rate of 90% or more (almost completely withered))
COc1ccc(-c2sc3ccc(F)cc3c2-c2c(O)c(C)nn(C)c2=O)cc1 [2-026]	5 (Herbicidal rate of 90% or more (almost completely withered))
CCCCOc1ccc(-c2sc3ccc(F)cc3c2-c2c(O)c(C)nn(C)c2=O)cc1 [2-036]	4 (Herbicidal rate of 70% or more and less than 90%)

The compounds below were run on oval-leafed pondweed (assay: Test Example 2: herbicidal activity, application during weed generation under submerged conditions (Table 17, symbol C)). Conditions: AAH 320 g/ha; application during weed generation, submerged conditions.
Format: in vivo, oval-leafed pondweed (Monochoria vaginalis)
Method in brief: (§5)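 Wagner pot, alluvial soil, 4 cm flood; mixed sowing of all species; greenhouse 25° C.–30° C. Emulsifiable formulation, water-diluted to predetermined dose, applied to paddy water at 1–2 leaf stage. Effect rated at 3 wk using the earlier test's scoring criteria.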

SMILES	herbicidal effect rating, C: oval-leafed pondweed
CCCC(=O)Oc1c(C)nn(C)c(=O)c1-c1c(-c2ccc(C)cc2)sc2ccc(F)cc12 [2-013]	3 (Herbicidal rate of 40% or more and less than 70%)
COc1ccc(-c2sc3ccc(F)cc3c2-c2c(O)c(C)nn(C)c2=O)cc1 [2-026]	5 (Herbicidal rate of 90% or more (almost completely withered))
CCCCOc1ccc(-c2sc3ccc(F)cc3c2-c2c(O)c(C)nn(C)c2=O)cc1 [2-036]	3 (Herbicidal rate of 40% or more and less than 70%)

What follows are compounds tested on Japanese bulrush (assay: Test Example 1: herbicidal activity, application before weed generation under submerged conditions (Table 16, symbol B)). Conditions: 320 g/ha applied herbicide.
Format: in vivo, Japanese bulrush (Schoenoplectus juncoides)
Method in brief: as §3

SMILES	Herbicidal effect on B: Japanese bulrush (grade 0-5)
CCCC(=O)Oc1c(C)nn(C)c(=O)c1-c1c(-c2ccc(C)cc2)sc2ccc(F)cc12 [2-013]	2 (Herbicidal rate of 20% or more and less than 40%)
COc1ccc(-c2sc3ccc(F)cc3c2-c2c(O)c(C)nn(C)c2=O)cc1 [2-026]	4 (Herbicidal rate of 70% or more and less than 90%)
CCCCOc1ccc(-c2sc3ccc(F)cc3c2-c2c(O)c(C)nn(C)c2=O)cc1 [2-036]	4 (Herbicidal rate of 70% or more and less than 90%)

Each compound was assayed on Chinese sprangletop (assay: Test Example 3: herbicidal effect by foliage application, Wagner pot (Table 18, symbol D)). Conditions: 320 g/ha.
Format: in vivo, chinese sprangletop (Leptochloa chinensis)
Method in brief: as §2

SMILES	herbicidal effect on D (Chinese sprangletop), rating 0-5
CCCC(=O)Oc1c(C)nn(C)c(=O)c1-c1c(-c2ccc(C)cc2)sc2ccc(F)cc12 [2-013]	5 (Herbicidal rate of 90% or more (almost completely withered))
COc1ccc(-c2sc3ccc(F)cc3c2-c2c(O)c(C)nn(C)c2=O)cc1 [2-026]	4 (Herbicidal rate of 70% or more and less than 90%)
CCCCOc1ccc(-c2sc3ccc(F)cc3c2-c2c(O)c(C)nn(C)c2=O)cc1 [2-036]	3 (Herbicidal rate of 40% or more and less than 70%)

Each compound was assayed on wild oat (assay: Test Example 5: herbicidal effect by foliage application, plastic box (Table 20, symbol I)). Conditions: foliage application, 320 g/ha, 3 weeks after application.
Format: in vivo, wild oat (Avena fatua)
Method in brief: as §1

SMILES	effect on wild oat (I)
CCCC(=O)Oc1c(C)nn(C)c(=O)c1-c1c(-c2ccc(C)cc2)sc2ccc(F)cc12 [2-013]	0 (Herbicidal rate of 5% or less (almost no effect))
COc1ccc(-c2sc3ccc(F)cc3c2-c2c(O)c(C)nn(C)c2=O)cc1 [2-026]	5 (Herbicidal rate of 90% or more (almost completely withered))
CCCCOc1ccc(-c2sc3ccc(F)cc3c2-c2c(O)c(C)nn(C)c2=O)cc1 [2-036]	4 (Herbicidal rate of 70% or more and less than 90%)

Each compound was assayed on blackgrass (assay: Test Example 5: herbicidal effect by foliage application, plastic box (Table 20, symbol J)). Conditions: foliage application, 320 g/ha, 3 weeks after application.
Format: in vivo, blackgrass (Alopecurus myosuroides)
Method in brief: as §1

SMILES	effect on blackgrass (J)
CCCC(=O)Oc1c(C)nn(C)c(=O)c1-c1c(-c2ccc(C)cc2)sc2ccc(F)cc12 [2-013]	1 (Herbicidal rate of 5% or more and less than 20%)
COc1ccc(-c2sc3ccc(F)cc3c2-c2c(O)c(C)nn(C)c2=O)cc1 [2-026]	4 (Herbicidal rate of 70% or more and less than 90%)
CCCCOc1ccc(-c2sc3ccc(F)cc3c2-c2c(O)c(C)nn(C)c2=O)cc1 [2-036]	4 (Herbicidal rate of 70% or more and less than 90%)

The compounds below were run on Italian ryegrass (assay: Test Example 4: herbicidal effect by soil treatment (Table 19, symbol K)). Conditions: 320 g/ha.
Format: in vivo, Italian ryegrass (Lolium multiflorum)
Method in brief: as §4

SMILES	herbicidal effect rating, K: Italian ryegrass
CCCC(=O)Oc1c(C)nn(C)c(=O)c1-c1c(-c2ccc(C)cc2)sc2ccc(F)cc12 [2-013]	4 (Herbicidal rate of 70% or more and less than 90%)
COc1ccc(-c2sc3ccc(F)cc3c2-c2c(O)c(C)nn(C)c2=O)cc1 [2-026]	3 (Herbicidal rate of 40% or more and less than 70%)
CCCCOc1ccc(-c2sc3ccc(F)cc3c2-c2c(O)c(C)nn(C)c2=O)cc1 [2-036]	0 (Herbicidal rate of 5% or less (almost no effect))

What follows are compounds tested on redroot pigweed (assay: Test Example 4: herbicidal effect by soil treatment (Table 19, symbol N)). Conditions: 320 g/ha.
Format: in vivo, redroot pigweed (Amaranthus retroflexus)
Method in brief: as §4

SMILES	herbicidal effect rating, N: redroot pigweed
CCCC(=O)Oc1c(C)nn(C)c(=O)c1-c1c(-c2ccc(C)cc2)sc2ccc(F)cc12 [2-013]	4 (Herbicidal rate of 70% or more and less than 90%)
COc1ccc(-c2sc3ccc(F)cc3c2-c2c(O)c(C)nn(C)c2=O)cc1 [2-026]	5 (Herbicidal rate of 90% or more (almost completely withered))
CCCCOc1ccc(-c2sc3ccc(F)cc3c2-c2c(O)c(C)nn(C)c2=O)cc1 [2-036]	5 (Herbicidal rate of 90% or more (almost completely withered))

Each compound was assayed on late watergrass (assay: Test Example 2: herbicidal activity, application during weed generation under submerged conditions (Table 17, symbol A)). Conditions: AAH 320 g/ha; application during weed generation, submerged conditions.
Format: in vivo, late watergrass (Echinochloa oryzicola)
Method in brief: as §5

SMILES	herbicidal effect rating, A: late watergrass
CCCC(=O)Oc1c(C)nn(C)c(=O)c1-c1c(-c2ccc(C)cc2)sc2ccc(F)cc12 [2-013]	4 (Herbicidal rate of 70% or more and less than 90%)
COc1ccc(-c2sc3ccc(F)cc3c2-c2c(O)c(C)nn(C)c2=O)cc1 [2-026]	1 (Herbicidal rate of 5% or more and less than 20%)
CCCCOc1ccc(-c2sc3ccc(F)cc3c2-c2c(O)c(C)nn(C)c2=O)cc1 [2-036]	0 (Herbicidal rate of 5% or less (almost no effect))

These compounds were tested on barnyard grass (assay: Test Example 5: herbicidal effect by foliage application, plastic box (Table 20, symbol H)). Conditions: foliage application, 320 g/ha, 3 weeks after application.
Format: in vivo, barnyard grass (Echinochloa crus-galli)
Method in brief: as §1

SMILES	effect on barnyard grass (H)
CCCC(=O)Oc1c(C)nn(C)c(=O)c1-c1c(-c2ccc(C)cc2)sc2ccc(F)cc12 [2-013]	5 (Herbicidal rate of 90% or more (almost completely withered))
COc1ccc(-c2sc3ccc(F)cc3c2-c2c(O)c(C)nn(C)c2=O)cc1 [2-026]	5 (Herbicidal rate of 90% or more (almost completely withered))
CCCCOc1ccc(-c2sc3ccc(F)cc3c2-c2c(O)c(C)nn(C)c2=O)cc1 [2-036]	5 (Herbicidal rate of 90% or more (almost completely withered))

What follows are compounds tested on barnyard grass (assay: Test Example 3: herbicidal effect by foliage application, Wagner pot (Table 18, symbol H)). Conditions: 320 g/ha.
Format: in vivo, barnyard grass (Echinochloa crus-galli)
Method in brief: as §2

SMILES	herbicidal effect on H (barnyard grass), rating 0-5
CCCC(=O)Oc1c(C)nn(C)c(=O)c1-c1c(-c2ccc(C)cc2)sc2ccc(F)cc12 [2-013]	5 (Herbicidal rate of 90% or more (almost completely withered))
COc1ccc(-c2sc3ccc(F)cc3c2-c2c(O)c(C)nn(C)c2=O)cc1 [2-026]	5 (Herbicidal rate of 90% or more (almost completely withered))
CCCCOc1ccc(-c2sc3ccc(F)cc3c2-c2c(O)c(C)nn(C)c2=O)cc1 [2-036]	5 (Herbicidal rate of 90% or more (almost completely withered))

These compounds were tested on persian speedwell (assay: Test Example 5: herbicidal effect by foliage application, plastic box (Table 20, symbol R)). Conditions: foliage application, 320 g/ha, 3 weeks after application.
Format: in vivo, Persian speedwell (Veronica persica)
Method in brief: as §1

SMILES	effect on persian speedwell (R)
CCCC(=O)Oc1c(C)nn(C)c(=O)c1-c1c(-c2ccc(C)cc2)sc2ccc(F)cc12 [2-013]	5 (Herbicidal rate of 90% or more (almost completely withered))
COc1ccc(-c2sc3ccc(F)cc3c2-c2c(O)c(C)nn(C)c2=O)cc1 [2-026]	5 (Herbicidal rate of 90% or more (almost completely withered))
CCCCOc1ccc(-c2sc3ccc(F)cc3c2-c2c(O)c(C)nn(C)c2=O)cc1 [2-036]	5 (Herbicidal rate of 90% or more (almost completely withered))
